{"source": "patent US20210169077A1", "about": "“METHOD FOR IMPROVING SEED GERMINATION AND/OR PLANT TOLERANCE TO ENVIRONMENTAL STRESS” (DANSTAR FERMENT AG, priority 2017, published 2021)", "format_in_all_cases": "in vivo", "key": {"[1]": {"test_system": "corn seeds of the variety LG 32.58", "assay": "Internal glycine-betaine concentration in corn seeds after foliar application, variety LG 32.58 (field trial, 1H-NMR)", "procedure": "(§1) The field trial was performed with two different varieties of corn: the LG 32.58 variety and the Casey variety.\n(§2) To prevent auto-fertilization during the corn seed production, the male reproductive parts of the female line were removed prior to the time of pollen shed.\n[…] Each repetition consists of 18 plants. Control plants were treated with water.\n(§3) Seeds (200) were collected at maturity. Seeds were ground using a ball mill and extracted with ethanol. Samples were evaporated to dryness and dissolved in deuterium oxide (D20) (50 mg/ml). 1H-NMR analysis (Bruker, at 500 MHz) was performed using 3-(trimethylsilyl)-1-propane sulfonate sodium salt (DSS) as the internal standard. Values in ppm assigned to NMR signals are chemical shifts of the 9 protons which give the signal, for the glycine-betaine, at 3.251 ppm. A total of three extractions were performed on each sample."}, "[2]": {"test_system": "corn seeds of the variety Casey", "assay": "Internal glycine-betaine concentration in corn seeds after foliar application, variety Casey (field trial, 1H-NMR)", "details": "Greenstim sprayed on female line leaves at grain development stage, 4 kg/hectare, seeds collected at maturity, Rep 1-3, letter b differs from water control (p < 0.05)", "procedure": "as §1, §2\n(§4) The commercial Greenstim® (Lallemand) formulation was sprayed to the female line leaves during grain development stage at the equivalent of 4 kg/hectare. Each repetition consists of 18 plants. Control plants were treated with water.\nas §3"}, "corn seed Variety 1": {"test_system": "corn seed Variety 1", "assay": "Internal concentration of glycine-betaine (mg/kg) in corn seed, Variety 1 female lines", "details": "for Percentage increase in internal GB concentration: versus plants treated with water", "procedure": "as §2, §4, §3"}, "corn seed": {"test_system": "corn seed", "assay": "Effect of cold temperature on corn seed germination", "procedure": "Two hundred seeds of each treatment (plants treated with water and plants treated with glycine-betaine) were planted onto moistened sand. Samples were placed into a germination chamber at 10° C. for a period of 7 days. Samples were then transferred to a germination chamber set to 25° C. for 5 days. The experiment was conducted with a variety of seeds with increased cold tolerance compared to more traditional seed varieties. The germination rate of standard seeds after a cold germination test is between 50 to 70%."}}, "note": "Values joined by “and” are separate entries in the source; they are usually repeats but may differ in a detail not shown here. Equal entries are not always repeated."}
{"molecule": "C[N+](C)(C)CC(=O)[O-]", "note": "[GB, N,N,N-trimethylglycine]", "values": [{"measurement": "GB concentration, GB (plants treated with GB)", "setting": "[1]; corn variety LG 32.58, Greenstim sprayed on female line leaves at grain development stage, 4 kg/hectare, seeds collected at maturity, Rep 1-3, letter b differs from water control (p < 0.05)", "result": "41.18b μg · g^−1 MS and 37.71b μg · g^−1 MS and 38.53b μg · g^−1 MS"}, {"measurement": "Internal glycine-betaine content of the seeds compared to untreated seeds", "setting": "[1]; summary of Tables 1 to 4, plants sprayed at the flowering stage", "result": "significantly higher"}, {"measurement": "GB concentration, GB (plants treated with GB)", "setting": "[2]", "result": "79.19b μg · g^−1 MS and 79.33b μg · g^−1 MS and 83.91b μg · g^−1 MS"}, {"measurement": "Internal concentration of glycine-betaine in corn seed, Mean GB (plants treated with GB)", "setting": "corn seed Variety 1; Variety 1-female 1, Rep 1", "result": 6.67, "unit": "mg/kg"}, {"measurement": "Percentage increase in internal GB concentration", "setting": "corn seed Variety 1; Variety 1-female 1, Rep 1", "result": 53, "unit": "%"}, {"measurement": "Internal concentration of glycine-betaine in corn seed, Mean GB (plants treated with GB)", "setting": "corn seed Variety 1; Variety 1-female 2, Rep 2", "result": 5.19, "unit": "mg/kg"}, {"measurement": "Percentage increase in internal GB concentration", "setting": "corn seed Variety 1; Variety 1-female 2, Rep 2", "result": 1135, "unit": "%"}, {"measurement": "Internal concentration of glycine-betaine in corn seed, Mean GB (plants treated with GB)", "setting": "corn seed Variety 1; Variety 1-female 3, Rep 3", "result": 6.89, "unit": "mg/kg"}, {"measurement": "Percentage increase in internal GB concentration", "setting": "corn seed Variety 1; Variety 1-female 3, Rep 3", "result": 15, "unit": "%"}, {"measurement": "Seed germination percentage (plants treated with GB)", "setting": "corn seed; Variety-female 3, 200 seeds on moistened sand, 10° C. for 7 days then 25° C. for 5 days", "result": 86.61}, {"measurement": "Percentage increase in germination", "setting": "corn seed; Variety-female 3, after cold treatment, versus seeds from plants treated with water", "result": 2.1, "unit": "%"}, {"measurement": "Seed germination percentage after cold treatment compared with untreated seeds", "setting": "corn seed; summary of Table 5, seeds with increased internal content of glycine-betaine", "result": "significantly better seed germination percentage"}]}
